Data set [1] can be described thus: Vapor sorption measurement (index of hygroscopicity), DVS-1 apparatus. In kind it is physicochemical. The following applies: relative humidity 70%, change calculated based on weight at relative humidity 0%, sample about 7 mg. As to the method:
A vapor sorption measurement to provide an index of hygroscopicity was performed using a DVS-1 vapor sorption apparatus (manufactured by SMS) under the following conditions. A sample of about 7 mg was used and the relative humidity was increased by 10% within the range of from 0% to 90%, and finally to 95%. The weight change was recorded at each predetermined relative humidity, and the amount of change (%) was calculated based on the weight at relative humidity 0%. As the samples, compound 1-2 (hereinafter to be referred to as a free form) obtained according to the method described in WO 2006/028284, Example 2, compound 1-3 (hereinafter to be referred to as hydrobromide Form I crystal) obtained according to the method described in Example 1 and compound 2 (hereinafter to be referred to as hydrobromide Form II crystal) obtained according to the method described in Example 2 were used.

In a further data set the target is T1, CCR3 (Homo sapiens, UniProt P51677).
T1 sequence (P51677 1-355): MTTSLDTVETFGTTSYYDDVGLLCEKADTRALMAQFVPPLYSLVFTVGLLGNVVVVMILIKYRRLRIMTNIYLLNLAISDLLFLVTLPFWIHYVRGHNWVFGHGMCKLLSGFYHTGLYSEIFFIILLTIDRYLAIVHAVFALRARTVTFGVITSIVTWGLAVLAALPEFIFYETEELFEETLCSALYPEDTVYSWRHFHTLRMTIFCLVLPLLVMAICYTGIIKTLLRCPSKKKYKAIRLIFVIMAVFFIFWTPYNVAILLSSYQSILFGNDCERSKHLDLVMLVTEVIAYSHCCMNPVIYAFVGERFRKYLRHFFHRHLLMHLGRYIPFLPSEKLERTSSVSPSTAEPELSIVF
The following applies: known from WO2006/028284, Table 1 of Experimental Example 1; cited from earlier work.

Consider three compounds from US8030303B2, “Salt of morpholine compound” (Mitsubishi Tanabe Pharma Corporation, priority 2006, dated 2011).

Each structure is given as a SMILES string.

As for `Br.O=C(O)Cc1csc(SCC(=O)NC[C@H]2CN(Cc3ccc(Cl)c(Cl)c3)CCO2)n1` [hydrobromide Form I crystal, (2S)-[4-(carboxymethyl)thiazol-2-ylthio]-N-{[4-(3,4-dichlorobenzyl)morpholin-2-yl]methyl}acetamide hydrobromide], the “weight change (gain) due to vapor sorption” value (from here on “weight change (gain) due”) in data set [1] (hydrobromide) is 0.1%.

As to `Br.O=C(O)Cc1csc(SCC(=O)NC[C@H]2CN(Cc3ccc(Cl)c(Cl)c3)CCO2)n1` [free form, (2S)-[4-(carboxymethyl)thiazol-2-ylthio]-N-{[4-(3,4-dichlorobenzyl)morpholin-2-yl]methyl}acetamide], the “CCR3 antagonism / inhibition of CCR3-ligand binding” value at CCR3 is “inhibit the bond between CCR3 and a ligand thereof, and act as an antagonist”. Besides, in data set [1], the “weight change (gain) due” value is given as 3.3%.

With `Br.O=C(O)Cc1csc(SCC(=O)NC[C@H]2CN(Cc3ccc(Cl)c(Cl)c3)CCO2)n1` [hydrobromide Form II crystal, (2S)-[4-(carboxymethyl)thiazol-2-ylthio]-N-{[4-(3,4-dichlorobenzyl)morpholin-2-yl]methyl}acetamide hydrobromide], the “weight change (gain) due” value in data set [1] (hydrobromide) is 1.4%.
